Results taken from US5834493A, “Indole derivatives as 5-HT1A and/or 5-HT2 ligands” (priority 1993, dated 1998).

Assays:
5-HT2 receptors = target: T1, 5-HT2 receptors (Rattus norvegicus, UniProt P14842); experiment: 5-HT2 receptor binding ([3H]-Ketanserine displacement, rat cerebral cortex); set-up: species or system rat (male Sprague Dawley); settings: [3H]-Ketanserine 0.5-1.0 nM, 37° C., 10 min, pH 7.4, read-out: Affinity for 5-HT2 receptors, Ki
T1 construct: Cerebral cortices were homogenized in 10 volumes of ice cold 0.32M sucrose; from tissue; host or cells: rat cerebral cortex (male Sprague Dawley), membrane preparation
T1 sequence (P14842 whole entry): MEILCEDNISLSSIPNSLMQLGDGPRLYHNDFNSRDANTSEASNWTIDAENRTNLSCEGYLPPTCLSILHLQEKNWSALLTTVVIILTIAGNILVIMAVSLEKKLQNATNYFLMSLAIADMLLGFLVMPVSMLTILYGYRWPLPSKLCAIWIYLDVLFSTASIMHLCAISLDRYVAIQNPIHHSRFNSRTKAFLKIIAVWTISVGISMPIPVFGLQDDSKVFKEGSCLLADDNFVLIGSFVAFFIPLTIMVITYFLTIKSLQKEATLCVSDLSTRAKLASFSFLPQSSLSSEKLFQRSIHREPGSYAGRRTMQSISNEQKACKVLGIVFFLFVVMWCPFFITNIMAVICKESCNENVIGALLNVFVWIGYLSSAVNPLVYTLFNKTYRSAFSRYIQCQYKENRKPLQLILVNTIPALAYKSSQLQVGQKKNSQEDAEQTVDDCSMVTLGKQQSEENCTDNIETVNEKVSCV
Procedure: (§1) Receptor binding studies on 5-HT1A and 5-HT2 receptors were carried out to determine the affinity of the test compounds.
Rats (male Sprague Dawley, 200-250 g) were used. Cerebral cortices were homogenized in 10 volumes of ice cold 0.32M sucrose. After the centrifugation of the homogenate (1,000×g for 10 min) the supernatant was then recentrifuged at 48,000×g for 15 min. The resulting pellet was resuspended in 10 volumes of 50 mM TRIS buffer (pH 7.4), incubated at 37° C. for 10 min and recentrifuged at 48,000×g for 15 min. The residue was then resuspended in 10 volumes of 50 mM TRIS buffer (pH 7.4).
The tissue was diluted 1:100 (w:v) in 50 mM TRIS buffer (pH 7.4) to have a final protein concentration of about 200 μg/mL.
Displacement experiments were performed by incubating the homogenate (980 μL) in the presence of [^3 H]-Ketanserine (0.5-1.0 nM) (10 μL) and of different concentrations of the test compounds dissolved in the assay buffer (10 μL), at 37° C. for 10 min (final volume: 1 mL).
Non specific binding was determined in the presence of 100 μM Methysergide (10 μL). The separation of [^3 ]-Ketanserine free from that bound to the receptor was carried by the filtration technique (GF/B filters, Whatman). The radioactivity present was counted by liquid scintillation spectrometry.
(§2) The affinity values (Ki) for the compounds were obtained by non linear least squares regression analysis on the basis of a one binding site model. These values were corrected on the basis of the radioligand occupancy on the receptors according to the equation: Ki=IC50 /(1+[C]/KD), where [C] and KD represent the concentration and the dissociation constant, respectively, of the radioligand used ([^3 H]-Ketanserine).

5-HT1A receptors = target: T2, 5-HT1A receptors (Rattus norvegicus, UniProt P19327); experiment: 5-HT1A receptor binding ([3H]-8-OH-DPAT displacement, rat hippocampus homogenate); set-up: species or system rat (male Sprague Dawley); settings: [3H]-8-OH-DPAT 1.0-1.5 nM, 30° C., 15 min, pH 7.4, read-out: Affinity for 5-HT1A receptors, Ki
T2 construct: The Hippocampi of these animals were homogeneized in 10 volumes of ice cold TRIS buffer; from tissue; host or cells: rat hippocampus (male Sprague Dawley), homogenate
T2 sequence (P19327 1-422): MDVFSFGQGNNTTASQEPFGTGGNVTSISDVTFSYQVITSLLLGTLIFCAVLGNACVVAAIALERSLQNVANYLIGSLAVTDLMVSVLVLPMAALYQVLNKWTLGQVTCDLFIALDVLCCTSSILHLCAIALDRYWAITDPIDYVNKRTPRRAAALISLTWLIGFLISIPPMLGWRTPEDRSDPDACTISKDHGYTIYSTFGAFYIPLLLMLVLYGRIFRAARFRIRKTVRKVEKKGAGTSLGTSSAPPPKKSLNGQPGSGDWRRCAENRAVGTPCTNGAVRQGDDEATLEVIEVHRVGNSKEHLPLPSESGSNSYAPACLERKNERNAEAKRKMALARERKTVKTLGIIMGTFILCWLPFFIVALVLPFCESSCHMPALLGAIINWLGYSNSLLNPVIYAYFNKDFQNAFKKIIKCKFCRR
Procedure: as §1
Rats (male Sprague Dawley, 200-250 g) were used. The Hippocampi of these animals were homogeneized in 10 volumes of ice cold TRIS buffer (pH 7.4). The homogenate was diluted 1:400 (w:v) in the same buffer to have a final protein concentration of about 200 μg/mL, filtered and incubated at 37° C. for 10 min, before use.
Displacement experiments were performed by incubating the homogenate (980 μL) in the presence of [^3 H]-8OH-DPAT (1.0-1.5 nM) (10 μL) and of different concentrations of the test compounds dissolved in the test buffer (10 μL), at 30° C. for 15 min (final volume: 1 mL).
Non specific binding was determined in the presence of 100 μM 5-HT (10 μL). The separation of [3H]-8-OH-DPAT, free from that bound to the receptor, was carried out by the filtration technique (GF/B filters, Whatman). The radioactivity present was counted by liquid scintillation spectrometry.
as §2, with “by a” for “by”, “The” for “These”, “/(1+[C]/KD),where” for “/(1+[C]/KD), where”, “H]-8-OH-DPAT).” for “H]-Ketanserine).”

| Compound | Ki (5-HT2 receptors) [nM] | Ki (5-HT1A receptors) [nM] |
| --- | --- | --- |
| COc1ccc2[nH]cc(CC3=CCCN(CCCCc4ccc(F)cc4)C3)c2c1 [Compound 14, 5-methoxy-3-[N-(4-(4-fluoro-phenyl)-butyl)-1,2,5,6-tetrahydro-pyridin-3-ylmethyl]-1H-indole] | 100 | 80 |
| COc1ccc2[nH]cc(CC3=CCCN(CCCc4ccc(F)cc4)C3)c2c1 [Compound 15, 5-methoxy-3-[N-(3-(4-fluoro-phenyl)-propyl)-1,2,5,6-tetrahydro-pyridin-3-ylmethyl]-1H-indole] | 10 | 10 |
| COc1ccc2[nH]cc(CC3=CCCN(CCNC(=O)c4ccc(F)cc4)C3)c2c1 [Compound 16] | – | 1 |
| COc1ccc2[nH]cc(CC3=CCCN(CCC(=O)c4ccc(F)cc4)C3)c2c1 [Compound 11, 5-methoxy-3-[N-(3-(4-fluoro-phenyl)-3-oxo-propyl)-1,2,5,6-tetrahydro-pyridin-3-ylmethyl]-1H-indole] | 20 | 30 |
| COc1ccc2[nH]cc(CC3=CCCN(CCOc4ccc(F)cc4)C3)c2c1 [Compound 2, 5-methoxy-3-[N-(4'-fluoro-phenoxy-ethyl)-1,2,5,6-tetrahydro-pyridin-3-yl-methyl]-1H-indole] | 50 | 10 |
| COc1ccc2[nH]cc(CC3=CCCN(CCNC(=O)c4cccs4)C3)c2c1 [Compound 17, 5-methoxy-3-[N-(2-(2-thiophene-carboxamide)-ethyl)-1,2,5,6-tetrahydro-pyridin-3-ylmethyl]-1H-indole] | – | 1 |
| COc1ccc2[nH]cc(CC3=CCCN(C)C3)c2c1 [Compound 1, 5-methoxy-3-(N-methyl-1,2,5,6-tetrahydro-pyridin-3-yl-methyl)-1H-indole] | – | 35 |
| COc1ccc2[nH]cc(CC3=CCCN(CCCC(=O)c4ccc(F)cc4)C3)c2c1 [Compound 9, 5-methoxy-3-[N-(4-(4-fluoro-phenyl)-4-oxo-butyl)-1,2,5,6-tetrahydro-pyridin-3-ylmethyl]-1H-indole] | 15 | 30 |
| COc1ccc2[nH]cc(CC3=CCCN(CCCC(=O)c4cccs4)C3)c2c1 [Compound 32, 5-methoxy-3-[N-(4-(2-thienyl)-4-oxo-butyl)-1,2,5,6-tetrahydro-pyridin-3-ylmethyl]-1H-indole] | 10 | 30 |
| COc1ccc2[nH]cc(CC3=CCCN(CCc4ccc(N)cc4)C3)c2c1 [Compound 13, 5-methoxy-3-[N-(2-(4-amino-phenyl)-ethyl)-1,2,5,6-tetrahydro-pyridin-3-ylmethyl]-1H-indole] | 50 | 100 |
